# Numbered stars: 1 amine (or outer) side, 2 acyl side, 3 side chain; on linkers, the order of the positions; unused ones are H or OH. Bridge positions count the residues as written; N and C are the ends. Square brackets hold non-standard residues; d marks the D form. Peptide text beside a SMILES is read from it. * marks the point of attachment. X1 = CC[C@H](C)[C@@H](N[*:1])[C@@H](O)CC(=O)O[C@H](C(=O)[C@H](C)C(=O)[*:2])C(C)C; NMeY = CN[C@@H](Cc1ccc(O)cc1)C(=O)O; dNMeL = CN[C@H](CC(C)C)C(=O)O; Pyruvoyl = CC(=O)C(=O)*
# What was measured:
# Format in all cases: cell-based
# [1] = tested on: Jak/Stat3 signaling; assay: Jak/Stat3 signaling in tumor cells following treatment; settings: following dehydrodidemnin B treatment
# [2] = tested on: tumor cells; assay: tumor cell demise following treatment; settings: following dehydrodidemnin B treatment
# Description: Accordingly, the instant invention is useful in drug screening assays for known and novel therapeutics targeting either the tumor cell or components of the tumor cell environment.
# [3] = tested on: tumor cells in the reconstituted tumor microenvironment; assay: growth of tumor cells in the reconstituted tumor microenvironment; settings: tumor cells established within the reconstituted tumor microenvironment
# Procedure: The three cell system in Examples 1 and 2 is prepared and used to test standard chemotherapeutic agents for activity against cancer cell lines, such as the breast cancer cell lines MDAMB231 and MDAMB435 representing basal subtype and MCF7 and SKBR3 representing luminal subtype of breast cancer. Reconstitution is carried out in 96 well plates by co-culturing a fixed number of tumor cells and carcinoma-associated fibroblast-like cells plus TAMs either alone or admixed with differing amounts of cells representing cell types in tumor milieu. Tumor growth is monitored at these sites in accordance with the foregoing. As the tumor cells express luciferase, tumor growth is monitored even at early time points by bioluminescence imaging following injection of D-luciferin on a Kodak MM2000 Imager. Again, all the tumor cell lines tested in culture are tested in this assay.
# The reconstituted system is used to identify synergistic combinations using a panel of standard chemotherapeutic agents and Jak/STAT3 inhibitors. The Chou Talalay combination index analysis is used and the data analyzed using Calcusyn software (Biosoft ver 3). […] Growth of tumors is monitored by bioluminescence imaging using a KODAK […] Imaging station as described earlier. […]
# [4] = tested on: FSP positive tumor stroma; assay: FSP positive tumor stroma after treatment; settings: fibroblast surface protein (FSP) as marker for tumor stroma
structure (smiles),measurement,setting,value
CC[C@H](C)[C@H]1NC(=O)[C@@H](NC(=O)[C@@H](CC(C)C)N(C)C(=O)[C@@H]2CCCN2C(=O)C(C)=O)[C@@H](C)OC(=O)[C@H](Cc2ccc(OC)cc2)N(C)C(=O)[C@@H]2CCCN2C(=O)[C@H](CC(C)C)NC(=O)[C@@H](C)C(=O)[C@H](C(C)C)OC(=O)C[C@@H]1O [dehydrodidemnin B] (Pyruvoyl-P[dNMeL]T[X1]LP[NMeY](Me); ester 3-C),Jak/Stat3 signaling in tumor cells,[1],inhibition of Jak/Stat3 signaling
same,fate of tumor cells after inhibition of Jak/Stat3 signaling,[2],led to the demise of tumor cells
same,growth of tumor cells,[3],can be inhibited
same,growth of tumor cells,[3]; listed as Dehydrodidemnin B,inhibited
same,FSP positive tumor stroma,[4],decreased FSP positive tumor stroma
